# Target: T1, Vitamin D3 receptor (Homo sapiens) (UniProt P11473)
# T1 sequence (whole entry): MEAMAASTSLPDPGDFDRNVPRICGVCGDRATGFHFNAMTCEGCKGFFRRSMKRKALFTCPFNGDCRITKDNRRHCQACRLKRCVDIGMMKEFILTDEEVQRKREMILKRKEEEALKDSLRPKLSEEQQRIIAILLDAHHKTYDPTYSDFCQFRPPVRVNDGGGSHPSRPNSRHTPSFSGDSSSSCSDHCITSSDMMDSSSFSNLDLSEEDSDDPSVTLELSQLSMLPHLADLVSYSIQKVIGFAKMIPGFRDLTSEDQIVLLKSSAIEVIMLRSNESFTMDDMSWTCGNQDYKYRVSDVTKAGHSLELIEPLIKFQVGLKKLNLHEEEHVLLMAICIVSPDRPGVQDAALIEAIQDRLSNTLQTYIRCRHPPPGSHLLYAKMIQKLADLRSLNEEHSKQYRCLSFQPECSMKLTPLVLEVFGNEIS
# Assay: Antagonist activity against 1-alpha,25-dihydroxy vitamin D3-induced HL60 cell differentiation by NBT reduction method relative to TEI-9647
# Assay type: functional, cell-based
# Design: scale not given: the % may be the effect or the level left
# Details: HL-60
row,Structure (SMILES),Activity [%]
1,C=C1C(=O)O[C@H](C[C@@H](C)[C@H]2CC[C@H]3/C(=C/C=C4/C[C@@H](O)C[C@H](O)C4=C)CCC[C@]23C)[C@@H]1CC(C)C,9
2,C=C1C(=O)O[C@@H](C[C@@H](C)[C@H]2CC[C@H]3/C(=C/C=C4/C[C@@H](O)C[C@H](O)C4=C)CCC[C@]23C)[C@@H]1C,250
3,C=C1/C(=C\C=C2/CCC[C@]3(C)[C@@H]([C@H](C)C[C@H]4OC(=O)C(=C)[C@@H]4CCCC)CC[C@@H]23)C[C@@H](O)[C@H](CCCO)[C@@H]1O,303
4,C=C1/C(=C\C=C2/CCC[C@]3(C)[C@@H]([C@H](C)C[C@@H]4OC(=O)C(=C)C45CC5)CC[C@@H]23)C[C@@H](O)C[C@@H]1O,284
5,C=C1/C(=C\C=C2/CCC[C@]3(C)[C@@H]([C@H](C)C[C@H]4OC(=O)C(=C)[C@@H]4CCC)CC[C@@H]23)C[C@@H](O)[C@H](OCCCO)[C@@H]1O,124
6,C=C1/C(=C\C=C2/CCC[C@]3(C)[C@@H]([C@H](C)C[C@H]4OC(=O)C(=C)[C@H]4CCCC)CC[C@@H]23)C[C@@H](O)[C@H](CCCO)[C@@H]1O,46
7,C=C1/C(=C\C=C2/CCC[C@]3(C)[C@@H]([C@H](C)C[C@@H]4OC(=O)C(=C)[C@H]4CC)CC[C@@H]23)C[C@@H](O)[C@H](OCCCO)[C@@H]1O,158
8,C=C1/C(=C\C=C2/CCC[C@]3(C)[C@@H]([C@H](C)C[C@@H]4OC(=O)C(=C)[C@@H]4CC)CC[C@@H]23)C[C@@H](O)[C@H](OCCCO)[C@@H]1O,600
9,C=C1/C(=C\C=C2/CCC[C@]3(C)[C@@H]([C@H](C)C[C@@H]4OC(=O)C(=C)[C@@H]4C)CC[C@@H]23)C[C@@H](O)[C@H](CCCO)[C@@H]1O,517
10,C=C1/C(=C\C=C2/CCC[C@]3(C)[C@@H]([C@H](C)C[C@@H]4OC(=O)C(=C)[C@@H]4CC(C)C)CC[C@@H]23)C[C@@H](O)[C@H](OCCCO)[C@@H]1O,3440
11,C=C1/C(=C\C=C2/CCC[C@]3(C)[C@@H]([C@H](C)C[C@H]4OC(=O)C(=C)[C@@H]4CC)CC[C@@H]23)C[C@@H](O)[C@H](OCCCO)[C@@H]1O,25
12,C=C1/C(=C\C=C2/CCC[C@]3(C)[C@@H]([C@H](C)C[C@H]4OC(=O)C(=C)C4(C)C)CC[C@@H]23)C[C@@H](O)C[C@@H]1O,16
13,C=C1C[C@@H](C[C@@H](C)[C@H]2CC[C@H]3/C(=C/C=C4/C[C@@H](O)[C@H](CCCO)[C@H](O)C4=C)CCC[C@]23C)OC1=O,100
14,C=C1C[C@@H](C[C@@H](C)[C@H]2CC[C@H]3/C(=C/C=C4/C[C@@H](O)[C@H](OCCCO)[C@H](O)C4=C)CCC[C@]23C)OC1=O,66
15,C=C1/C(=C\C=C2/CCC[C@]3(C)[C@@H]([C@H](C)C[C@H]4OC(=O)C(=C)[C@@H]4C)CC[C@@H]23)C[C@@H](O)[C@H](C)[C@@H]1O,85
16,C=C1C(=O)O[C@@H](C[C@@H](C)[C@H]2CC[C@H]3/C(=C/C=C4/C[C@@H](O)[C@H](C)[C@H](O)C4=C)CCC[C@]23C)[C@@H]1C,6190
17,C=C1/C(=C\C=C2/CCC[C@]3(C)[C@@H]([C@H](C)C[C@@H]4OC(=O)C(=C)[C@@H]4CCCC)CC[C@@H]23)C[C@@H](O)C[C@@H]1O,179
18,C=C1C[C@@H](C[C@@H](C)[C@H]2CC[C@H]3/C(=C/C=C4/C[C@@H](O)[C@H](C)[C@H](O)C4=C)CCC[C@]23C)OC1=O,38
19,C=C1/C(=C\C=C2/CCC[C@]3(C)[C@@H]([C@H](C)C[C@@H]4OC(=O)C(=C)[C@H]4CC(C)C)CC[C@@H]23)C[C@@H](O)[C@H](OCCCO)[C@@H]1O,291
20,C=C1/C(=C\C=C2/CCC[C@]3(C)[C@@H]([C@H](C)C[C@H]4OC(=O)C(=C)C45CC5)CC[C@@H]23)C[C@@H](O)C[C@@H]1O,< 0.3
21,C=C1/C(=C\C=C2/CCC[C@]3(C)[C@@H]([C@H](C)C[C@@H]4OC(=O)C(=C)[C@@H]4CCC)CC[C@@H]23)C[C@@H](O)C[C@@H]1O,86
22,C=C1/C(=C\C=C2/CCC[C@]3(C)[C@@H]([C@H](C)C[C@@H]4OC(=O)C(=C)[C@@H]4CC)CC[C@@H]23)C[C@@H](O)[C@H](CCCO)[C@@H]1O,442
23,C=C1/C(=C\C=C2/CCC[C@]3(C)[C@@H]([C@H](C)C[C@H]4OC(=O)C(=C)[C@H]4CCCC)CC[C@@H]23)C[C@@H](O)[C@H](C)[C@@H]1O,102
24,C=C1C(=O)O[C@@H](C[C@@H](C)[C@H]2CC[C@H]3/C(=C/C=C4/C[C@@H](O)C[C@H](O)C4=C)CCC[C@]23C)[C@@H]1CCC,60
25,C=C1/C(=C\C=C2/CCC[C@]3(C)[C@@H]([C@H](C)C[C@H]4OC(=O)C(=C)[C@H]4CCC)CC[C@@H]23)C[C@@H](O)[C@H](C)[C@@H]1O,170
26,C=C1C(=O)O[C@H](C[C@@H](C)[C@H]2CC[C@H]3/C(=C/C=C4/C[C@@H](O)[C@H](CCCO)[C@H](O)C4=C)CCC[C@]23C)[C@@H]1C,30

row,Structure (SMILES),Activity [%]
1,C=C1/C(=C\C=C2/CCC[C@]3(C)[C@@H]([C@H](C)C[C@H]4OC(=O)C(=C)[C@H]4CC)CC[C@@H]23)C[C@@H](O)[C@H](C)[C@@H]1O,74
2,C=C1/C(=C\C=C2/CCC[C@]3(C)[C@@H]([C@H](C)C[C@H]4OC(=O)C(=C)[C@@H]4CCCC)CC[C@@H]23)C[C@@H](O)[C@H](C)[C@@H]1O,1
3,C=C1/C(=C\C=C2/CCC[C@]3(C)[C@@H]([C@H](C)C[C@@H]4OC(=O)C(=C)[C@@H]4CCCC)CC[C@@H]23)C[C@@H](O)[C@H](OCCCO)[C@@H]1O,1660
4,C=C1/C(=C\C=C2/CCC[C@]3(C)[C@@H]([C@H](C)C[C@@H]4OC(=O)C(=C)[C@@H]4CC(C)C)CC[C@@H]23)C[C@@H](O)C[C@@H]1O,174
5,C=C1/C(=C\C=C2/CCC[C@]3(C)[C@@H]([C@H](C)C[C@H]4OC(=O)C(=C)[C@@H]4CC)CC[C@@H]23)C[C@@H](O)[C@H](C)[C@@H]1O,18
6,C=C1C(=O)O[C@@H](C[C@@H](C)[C@H]2CC[C@H]3/C(=C/C=C4/C[C@@H](O)C[C@H](O)C4=C)CCC[C@]23C)[C@@H]1CCCC,58
7,C=C1C[C@H](C[C@@H](C)[C@H]2CC[C@H]3/C(=C/C=C4/C[C@@H](O)[C@H](OCCCO)[C@H](O)C4=C)CCC[C@]23C)OC1=O,1160
8,C=C1C(=O)O[C@@H](C[C@@H](C)[C@H]2CC[C@H]3/C(=C/C=C4/C[C@@H](O)C[C@H](O)C4=C)CCC[C@]23C)[C@@H]1CC(C)C,40
9,C=C1/C(=C\C=C2/CCC[C@]3(C)[C@@H]([C@H](C)C[C@@H]4OC(=O)C(=C)[C@@H]4C)CC[C@@H]23)C[C@@H](O)[C@H](C)[C@@H]1O,3750
10,C=C1C[C@H](C[C@@H](C)[C@H]2CC[C@H]3/C(=C/C=C4/C[C@@H](O)[C@H](CCCO)[C@H](O)C4=C)CCC[C@]23C)OC1=O,2990
11,C=C1C[C@@H](C[C@@H](C)[C@H]2CC[C@H]3/C(=C/C=C4/C[C@@H](O)C[C@H](O)C4=C)CCC[C@]23C)OC1=O,7
12,C=C1/C(=C\C=C2/CCC[C@]3(C)[C@@H]([C@H](C)C[C@@H]4OC(=O)C(=C)[C@@H]4CCCC)CC[C@@H]23)C[C@@H](O)[C@H](C)[C@@H]1O,2910
13,C=C1/C(=C\C=C2/CCC[C@]3(C)[C@@H]([C@H](C)C[C@@H]4OC(=O)C(=C)[C@H]4CC)CC[C@@H]23)C[C@@H](O)[C@H](CCCO)[C@@H]1O,866
14,C=C1/C(=C\C=C2/CCC[C@]3(C)[C@@H]([C@H](C)C[C@H]4OC(=O)C(=C)[C@H]4CC(C)C)CC[C@@H]23)C[C@@H](O)[C@H](OCCCO)[C@@H]1O,25
15,C=C1/C(=C\C=C2/CCC[C@]3(C)[C@@H]([C@H](C)C[C@H]4OC(=O)C(=C)[C@@H]4CC(C)C)CC[C@@H]23)C[C@@H](O)[C@H](C)[C@@H]1O,4
16,C=C1/C(=C\C=C2/CCC[C@]3(C)[C@@H]([C@H](C)C[C@@H]4OC(=O)C(=C)[C@@H]4C)CC[C@@H]23)C[C@@H](O)C[C@@H]1O,220
17,C=C1/C(=C\C=C2/CCC[C@]3(C)[C@@H]([C@H](C)C[C@H]4OC(=O)C(=C)[C@H]4CCC)CC[C@@H]23)C[C@@H](O)[C@H](CCCO)[C@@H]1O,117
18,C=C1/C(=C\C=C2/CCC[C@]3(C)[C@@H]([C@H](C)C[C@@H]4OC(=O)C(=C)[C@@H]4CC)CC[C@@H]23)C[C@@H](O)C[C@@H]1O,345
19,C=C1/C(=C\C=C2/CCC[C@]3(C)[C@@H]([C@H](C)C[C@@H]4OC(=O)C(=C)[C@H]4CCCC)CC[C@@H]23)C[C@@H](O)[C@H](CCCO)[C@@H]1O,122
20,C=C1/C(=C\C=C2/CCC[C@]3(C)[C@@H]([C@H](C)C[C@H]4OC(=O)C(=C)[C@H]4CC(C)C)CC[C@@H]23)C[C@@H](O)[C@H](CCCO)[C@@H]1O,31
21,C=C1/C(=C\C=C2/CCC[C@]3(C)[C@@H]([C@H](C)C[C@H]4OC(=O)C(=C)[C@H]4CCCC)CC[C@@H]23)C[C@@H](O)[C@H](OCCCO)[C@@H]1O,37
22,C=C1/C(=C\C=C2/CCC[C@]3(C)[C@@H]([C@H](C)C[C@H]4OC(=O)C(=C)[C@@H]4CCCC)CC[C@@H]23)C[C@@H](O)C[C@@H]1O,4
23,C=C1C(=O)O[C@H](C[C@@H](C)[C@H]2CC[C@H]3/C(=C/C=C4/C[C@@H](O)C[C@H](O)C4=C)CCC[C@]23C)[C@@H]1CCC,38
24,C=C1/C(=C\C=C2/CCC[C@]3(C)[C@@H]([C@H](C)C[C@H]4OC(=O)C(=C)[C@@H]4C)CC[C@@H]23)C[C@@H](O)[C@H](CCCO)[C@@H]1O,8
25,C=C1/C(=C\C=C2/CCC[C@]3(C)[C@@H]([C@H](C)C[C@H]4OC(=O)C(=C)[C@H]4CC)CC[C@@H]23)C[C@@H](O)[C@H](CCCO)[C@@H]1O,18
26,C=C1/C(=C\C=C2/CCC[C@]3(C)[C@@H]([C@H](C)C[C@@H]4OC(=O)C(=C)[C@@H]4CCC)CC[C@@H]23)C[C@@H](O)[C@H](CCCO)[C@@H]1O,4200

# Reference: ChEMBL document CHEMBL1137357, “Further synthetic and biological studies on vitamin D hormone antagonists based on C24-alkylation and C2alpha-functionalization of 25-dehydro-1alpha-hydroxyvitamin D(3)-26,23-lactones” (J Med Chem, 2006)
